Experimental data from patent US20250154131A1 (HAINAN SIMCERE PHARMACEUTICAL CO., LTD., priority 2021, published 2025).

Molecular target: SARS-COV-2 3CL Protease (Severe acute respiratory syndrome coronavirus 2 (2019-nCoV) (SARS-CoV-2), UniProt P0DTD1)
Assay: biochemical
Assay type: biochemical
Details: recombinant MBP-tagged 3CL protease, 30 min preincubation

Compound `CC1(C)[C@@H]2[C@@H](C(=O)N[C@H](C#N)C[C@@H]3CCNC3=O)N(C(=O)C(NC(=O)C(F)(F)F)C3CC4(CCC4)C3)C[C@@H]21` (stereo partly drawn) [Compound 3, (1R,2S,5S)—N—((S)-1-cyano-2-((S)-2-carbonylpyrrolidin-3-yl)ethyl)-6,6-dimethyl-3-(2-(spiro[3.3]heptan-2-yl)-2-(2,2,2-trifluoroacetamido)acetyl)-3-azabicyclo[3.1.0]hexane-2-carboxamide] has an IC50 (class symbol column) of 100 to 1000 nM and an IC50 (numeric column) of 525 nM.
`CC1(C)[C@@H]2[C@@H](C(=O)N[C@H](C#N)C[C@@H]3CCNC3=O)N(C(=O)[C@H](Cc3ccc4ccccc4c3)NC(=O)C(F)(F)F)C[C@@H]21` [Compound 4, (1R,2S,5S)—N—((S)-1-Cyano-2-((S)-2-carbonylpyrrolidin-3-yl)ethyl)-6,6-dimethyl-3-((S)-3-(naphthalen-2-yl)-2-(2,2,2-trifluoroacetamido)propanoyl)-3-azabicyclo[3.1.0]hexane-2-carboxamide] was tested, and the IC50 (class symbol column) was 100 to 1000 nM and the IC50 (numeric column) was 273 nM.
In the case of `CC1(C)[C@@H]2[C@@H](C(=O)N[C@H](C#N)CC3C(=O)Nc4ccccc43)N(C(=O)[C@@H](NC(=O)C(F)(F)F)C34CC5CC(CC(O)(C5)C3)C4)C[C@@H]21` (stereo partly drawn) [Compound 5, (1R,2S,5S)—N-((1S)-1-Cyano-2-(2-carbonylindolin-3-yl)ethyl)-3-((S)-2-((1r,3R,5R,7S)-3-hydroxyadamantan-1-yl)-2-(2,2,2-trifluoroacetamido)acetyl)-6,6-dimethyl-3-azabicyclo[3.1.0]hexane-2-carboxamide], the IC50 (class symbol column) is reported as < 100 nM and the IC50 (numeric column) is reported as 69.8 nM.
`CN(C)C1CCC(C(NC(=O)C(F)(F)F)C(=O)N2C[C@H]3[C@@H]([C@H]2C(=O)N[C@H](C#N)C[C@@H]2CCNC2=O)C3(C)C)CC1` (stereo partly drawn) [Compound 6, (1R,2S,5S)—N—((S)-1-cyano-2-((S)-2-oxopyrrolidin-3-yl)ethyl)-3-(2-(4-(dimethylamino)cyclohexane)-2-(2,2,2-trifluoroacetamido)acetyl)-6,6-dimethyl-3-azabicyclo[3.1.0]cyclohexane-2-carboxamide] showed an IC50 (class symbol column) of 100 to 1000 nM and an IC50 (numeric column) of 449 nM.
Compound `CN(C)CCCC[C@H](NC(=O)C(F)(F)F)C(=O)N1C[C@H]2[C@@H]([C@H]1C(=O)N[C@H](C#N)C[C@@H]1CCNC1=O)C2(C)C` [Compound 7, (1R,2S,5S)—N—((S)-1-cyano-2-((S)-2-oxopyrrolidin-3-yl)ethyl)-3-(N^6,N^6-dimethyl-N^2-(2,2,2-trifluoroacetyl)-L-lysyl)-6,6-dimethyl-3-azabicyclo[3.1.0]cyclohexane-2-carboxamide] has an IC50 (class symbol column) of 1000 to 10000 nM and an IC50 (numeric column) of 1110 nM.
With `CC(C)(C)[C@H](NC(=O)C(F)(F)F)C(=O)N1C[C@H]2[C@@H]([C@H]1C(=O)N[C@H](C#N)CC1C(=O)Nc3ncccc31)C2(C)C` (stereo partly shown) [Compound 8] the IC50 (class symbol column) was < 100 nM and the IC50 (numeric column) was 33.4 nM.
In the case of `CC(C)(C)[C@H](NC(=O)C(F)(F)Cl)C(=O)N1C[C@H]2[C@@H]([C@H]1C(=O)N[C@H](C#N)CC1C(=O)Nc3ccccc31)C2(C)C` (stereo partly drawn) [Compound 9, (1R,2S,5S)-3-((S)-2-(2-Chloro-2,2-difluoroacetamido)-3,3-dimethylbutanoyl)-N-((1S)-1-cyano-2-(2-oxoindol-3-yl)ethyl)-6,6-dimethyl-3-azabicyclo[3.1.0]hexane-2-carboxamide], the IC50 (class symbol column) is reported as < 100 nM and the IC50 (numeric column) is reported as 25.2 nM.
With `CC1(C)[C@@H]2[C@@H](C(=O)N[C@H](C#N)C[C@@H]3CCNC3=O)N(C(=O)[C@@H](NC(=O)C(F)(F)F)C34C[C@@H]5C[C@@H](CC(O)(C5)C3)C4)C[C@@H]21` [Compound 10, (1R,2S,5S)—N—((S)-1-Cyano-2-((S)-2-oxopyrrolidin-3-yl)ethyl)-3-((S)-2-((1R,3R,5R,7S)-3-hydroxyadamantan-1-yl)-2-(2,2,2-trifluoroacetamido)acetyl)-6,6-dimethyl-3-azabicyclo[3.1.0]hexane-2-carboxamide] the IC50 (class symbol column) was < 100 nM and the IC50 (numeric column) was 69.8 nM.
